Assays:
Assay in all cases: relative viability (nuclei count vs DMSO), 5 days (fraction); higher = more cells survive
NCI-H1915 = tested on: NCI-H1915
In short: (§1)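 Lung cancer cell lines in 1536-well plates were dosed by pin tool the day after seeding, either with one drug alone or with a fixed anchor-drug dose plus five library-drug doses (not always all listed) in √10 steps. After 5 days, cells were fixed and their nuclei stained in one step (final 0.05% Triton X-100, 1% formaldehyde, 1 ug/ml Hoechst), then counted on 4× images. Relative viability is the nuclei count in treated wells divided by that in vehicle wells. Values are medians of duplicate plates.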

NCI-H358 = tested on: NCI-H358
In short: as §1

HCC-44 = tested on: HCC-44
In short: as §1

SK-MES-1 = tested on: SK-MES-1
In short: as §1

NCI-H2023 = tested on: NCI-H2023
In short: as §1

NCI-H1395 = tested on: NCI-H1395
In short: as §1

COR-L23 = tested on: COR-L23
In short: as §1

LOU-NH91 = tested on: LOU-NH91
In short: as §1

NCI-H2087 = tested on: NCI-H2087
In short: as §1

NCI-H1734 = tested on: NCI-H1734
In short: as §1

EKVX = conditions: first compound 0.253 µM
In short: as §1

## O=c1[nH]c2ccccc2n1C1CCN(CCCC(c2ccc(F)cc2)c2ccc(F)cc2)CC1 [Pimozide] + C[C@]1(O)C[C@@H](c2nc(-c3ccc4ccc(-c5ccccc5)nc4c3)c3c(N)nccn32)C1 [Linsitinib] (partner 1 µM)
NCI-H1915; first compound 0.08 µM
  relative viability: 1.09
NCI-H1915; first compound 0.253 µM
  relative viability: 1.06
NCI-H1915; first compound 0.8 µM
  relative viability: 0.921
NCI-H1915; first compound 2.53 µM
  relative viability: 1.09
NCI-H1915; first compound 8 µM
  relative viability: 1.1
NCI-H358; first compound 0.08 µM
  relative viability: 0.739
NCI-H358; first compound 0.253 µM
  relative viability: 0.852
NCI-H358; first compound 0.8 µM
  relative viability: 0.649
NCI-H358; first compound 2.53 µM
  relative viability: 0.643
NCI-H358; first compound 8 µM
  relative viability: 0.693
HCC-44; first compound 0.08 µM
  relative viability: 0.635
HCC-44; first compound 0.253 µM
  relative viability: 0.703
HCC-44; first compound 0.8 µM
  relative viability: 0.64
HCC-44; first compound 2.53 µM
  relative viability: 0.653
HCC-44; first compound 8 µM
  relative viability: 0.685
SK-MES-1; first compound 0.08 µM
  relative viability: 0.993
SK-MES-1; first compound 0.253 µM
  relative viability: 1.04
SK-MES-1; first compound 0.8 µM
  relative viability: 1.07
SK-MES-1; first compound 2.53 µM
  relative viability: 1.11
SK-MES-1; first compound 8 µM
  relative viability: 1.09
NCI-H2023; first compound 0.08 µM
  relative viability: 0.613
NCI-H2023; first compound 0.253 µM
  relative viability: 0.654
NCI-H2023; first compound 0.8 µM
  relative viability: 0.61
NCI-H2023; first compound 2.53 µM
  relative viability: 0.667
NCI-H2023; first compound 8 µM
  relative viability: 0.443
NCI-H1395; first compound 0.08 µM
  relative viability: 1.12
NCI-H1395; first compound 0.253 µM
  relative viability: 1.07
NCI-H1395; first compound 0.8 µM
  relative viability: 1.07
NCI-H1395; first compound 2.53 µM
  relative viability: 1.35
NCI-H1395; first compound 8 µM
  relative viability: 1.09
COR-L23; first compound 0.08 µM
  relative viability: 0.956
COR-L23; first compound 0.253 µM
  relative viability: 0.76
COR-L23; first compound 0.8 µM
  relative viability: 0.832
COR-L23; first compound 2.53 µM
  relative viability: 0.887
COR-L23; first compound 8 µM
  relative viability: 0.84
LOU-NH91; first compound 0.08 µM
  relative viability: 0.488
LOU-NH91; first compound 0.253 µM
  relative viability: 0.97
LOU-NH91; first compound 0.8 µM
  relative viability: 0.929
LOU-NH91; first compound 2.53 µM
  relative viability: 1.1
LOU-NH91; first compound 8 µM
  relative viability: 0.959
NCI-H2087; first compound 0.08 µM
  relative viability: 0.904
NCI-H2087; first compound 0.253 µM
  relative viability: 0.869
NCI-H2087; first compound 0.8 µM
  relative viability: 0.917
NCI-H2087; first compound 2.53 µM
  relative viability: 1.04
NCI-H2087; first compound 8 µM
  relative viability: 0.96
NCI-H1734; first compound 0.08 µM
  relative viability: 0.88
NCI-H1734; first compound 0.253 µM
  relative viability: 0.829
NCI-H1734; first compound 0.8 µM
  relative viability: 0.878
NCI-H1734; first compound 2.53 µM
  relative viability: 0.944
NCI-H1734; first compound 8 µM
  relative viability: 0.972
EKVX
  relative viability: 0.837

Reference: the supplement of paper PMC10307832
